{"source": "patent US7879792B2", "about": "“Synthetic peptide inhibitors of thrombin and thrombin activation of protease activated receptors 1 and 4” (The Regents of the University of Michigan, priority 2005, dated 2011)", "key": {"[1]": {"test": "stability testing in intestinal perfusate", "assay_type": "in vitro ADME", "conditions": "rat, 37° C.; for half-life: intestinal perfusate", "description": "(§1) Stability testing of the various compounds was performed in buffer, intestinal perfusate, and an intestinal homogenate preparation to assess the potential oral availability of these compounds. Initial studies prepared the tissue for stability studies. The buffer used in stability testing is 10 mM MES (pH 6.5) containing 135 mM NaCl, and 5 mM KCl. To collect intestinal perfusate from rats, male Sprague Dawley rats, 8 to 10 weeks old, weighing 250 to 350 g were fasted 15 to 18 hours with water given ad libitum. Anesthesia was administered by intramuscular injection of pentobarbital/ketamine (40 mg/kg and 80 mg/kg, respectively). The rats were placed on a warming pad under a surgical lamp to maintain body temperature and jejunal intestinal segments were exposed through a midline, abdominal incision. Approximately 20 cm segment of the jejunum (2 to 4 cm distal to the ligament of Treitz) was cannulated and the intestinal segments were perfused with 10 mM MES (pH 6.5) containing 135 mM NaCl, and 5 mM KCl at a flow-rate of 0.5 ml/min at 37° C. using a constant infusion pump (Harvard Apparatus, South Natick, Mass.). The collected perfusate was stored at −80° C. until use for ex vivo stability studies. After collection, the perfused intestinal segments were flushed with ice-cold 0.15 M KCl solution and the animal was euthanized and the jejunal intestinal segment detached. The inner intestinal tissue layers are scraped out and homogenized in MES buffer (pH 6.5) in a ratio of 1 part of intestinal tissue to 5 parts buffer. Total protein content of the perfusate and the homogenate were determined using a Biorad protein assay kit. The intestinal homogenate samples were used immediately or rapidly frozen at −80° C. until stability analysis.\n(§2) The actual stability testing protocol is as follows: A 0.1 ml aliquot of the synthetic peptide solution (1 mg/ml) was added to 0.9 ml of MES buffer, pH 6.5, intestinal perfusate, or intestinal homogenate at 37° C. Samples were mixed by vortexing and 100 microliter aliquots were removed over a 60 to 90 minute period for analysis of breakdown products. The 100 microliter sample aliquots were diluted 10 fold with water and subjected to solid phase extraction using a Waters Oasis HLB column. Briefly, the columns were preconditioned by passing 1 ml of MeOH and 1 ml of water over the column, and 1 ml of sample was added to the column. The column was washed with 5% methanol:95% water solution to remove proteins and salts, then eluted with 1 ml of 100% methanol. The methanol was removed by vacuum, and the sample was reconstituted in mobile phase for LC/MS/MS analysis.\n(§3) LC/MS/MS analysis was performed on a HP1100 HPLC (Hewlett Packard) interfaced with a Quattro II MS/MS detector (Waters/Micromass). For the HPLC separation, a 10 μL aliquot of sample in a mobile phase consisting of an equal volume mixture of acetonitrile/water containing 0.5% formic acid was injected onto a 150 mm×2.2 mm, 5 μm C8 column (Higgins Analytical Inc) and developed at a flow rate of 0.2 ml/min for 5 minutes. The MS detector was used in single ion recording mode at a cone voltage of 50 Volts."}, "[2]": {"test": "rat intestinal in situ perfusion permeability", "assay_type": "in vivo", "conditions": "rat", "description": "To determine the intestinal permeability of the various peptide analogs, male albino Sprague-Dawley rats, 9-10 weeks old and weighing 250-350 g were fasted for 18 hours with free access to water. The rats were anesthetized with an intramuscular injection of ketamine/xylazine/butorphanol (87 mg/kg, 6 mg/kg, and 0.2 mg/kg body weight, respectively). The abdomen was opened by a 4-5 cm midline incision and a 10 cm jejunal segment was cannulated on two ends and connected to a syringe pump that pumps the perfusing solution through the cannulated intestine at a constant rate and at a temperature of 37° C. The isolated segment was rinsed with 10 mM MES (pH 6.5) at a flow-rate of 0.5 ml/min in order to clean out any residual debris. Jejunal perfusion was subsequently performed with the same buffer containing 135 mM NaCl, 5 mM KCl and 0.01% PEG 4000 at a flow rate of 0.2 ml/min containing test compound, internal permeability reference standards (e.g., metoprolol) and ^14C-PEG 4000 as a non-absorbable marker for measuring water flux. After steady-state is reached within the perfused intestinal segment, typically 30 minutes after start of perfusion, samples were taken at 10 minute intervals for 1 hour. ^14C (PEG-4000) levels are assayed by scintillation counting and test compounds and internal permeability standard analysis by LC/MS/MS. Samples are frozen and stored at −80° C. until analysis.\nThe effective permeability (Peff) determined from the in situ perfusion is calculated from equation 1\n[formula] where Q is the perfusion buffer flow rate, C′out is the outlet concentration of the compound that has been adjusted for water transport (equation 2) after passing through the intestinal segment, C′in is the inlet or starting concentration of the compound, R is the radius of the intestinal segment (set to 0.2 cm) and L is the length of the intestinal segment. To correct for water transport, a non-absorbed radioactive tracer, ^14C PEG-4000, is included in the perfusion buffer. The Cout/Cin ratio is corrected for water transport according to equation 2:\n[formula] where Aout-A0 is equal to the radioactivity counts in the outlet sample minus background (dpm) and Ain-A0 is equal to the radioactivity counts in the inlet sample minus background (dpm).\nIn certain instances, in addition to perfusing the intestinal segment as described, plasma is drawn through a portal vein cannula to determine the amount of material entering the portal system during the perfusion. This additional experimental step can aid in determining the true intestinal permeability of unstable compounds. After steady state conditions are reached as described above, 0.5 ml aliquots of plasma are withdrawn from the portal vein at regular intervals throughout the experimental time frame. The plasma samples are deproteinated with acetonitrile and the sample is subjected to SPE and LC/MS analysis as described above. From the plasma concentration of compound, the mesenteric permeability can be determined by substitution into equation 3: Flux=A*Pe-mes*Ci 3) where Flux is equal to the portal blood flow (estimated at 1 ml/min in the rat)×the steady state mesenteric blood concentration of the peptide analogs, A is the absorptive area of the intestine (estimated at 12.56 cm^2 in the rat intestine), Pe-mes is the mesenteric Permeability (cm/sec), and Ci is the starting concentration of drug in the perfusate (ug/ml)."}, "[3]": {"test": "stability testing in intestinal homogenate", "assay_type": "in vitro ADME", "conditions": "rat", "description": "as §1, §2, §3"}, "[4]": {"conditions": "read-out: t1/2 (min) Intestinal Perfusate"}}, "note": "Read-outs that look alike come from different tables or passages of the source. Where a SMILES comes first, the peptide text is derived from it."}
{"smiles": "N=C(N)NCCC[C@H](N)C(=O)N1CCC[C@H]1C(=O)N1CCC[C@H]1C(=O)O", "note": "[RPP, Arg-Pro-Pro, reference compound] (H-Arg-Pro-Pro-OH; C-terminus assumed)", "values": [{"measurement": "half-life at 0.1 mg/ml", "setting": "[1]; male, Sprague Dawley, intestinal (jejunal) perfusate, pH 6.5, rat, read-out: t1/2 (min) Intestinal Perfusate", "result": 91.8, "unit": "min"}]}
{"smiles": "N=C(N)NCCC[C@@H](N)C(=O)N1[C@H](C(=O)N2C[C@H](O)C[C@H]2C(=O)NCC(=O)N[C@H](C(N)=O)C2Cc3ccccc3C2)C[C@@H]2CCCC[C@@H]21", "note": "[rOicHypGIdg] (HELM PEPTIDE1{[dR].[O=C([C@@H]1C[C@@H]2CCCC[C@@H]2N1[*:1])[*:2]].[Hyp].G.[O=C([C@@H](N[*:1])C1Cc2ccccc2C1)[*:2]].[am]}$$$$V2.0)", "values": [{"measurement": "half-life", "setting": "[1]; [4]", "result": 205, "unit": "min"}]}
{"smiles": "N=C(N)NCCC[C@@H](N)C(=O)N1[C@H](C(=O)N2CCC[C@H]2C(=O)NCC(=O)N[C@H](C(N)=O)C2Cc3ccccc3C2)C[C@@H]2CCCC[C@@H]21", "note": "[rOicPGIdg] (HELM PEPTIDE1{[dR].[O=C([C@@H]1C[C@@H]2CCCC[C@@H]2N1[*:1])[*:2]].P.G.[O=C([C@@H](N[*:1])C1Cc2ccccc2C1)[*:2]].[am]}$$$$V2.0)", "values": [{"measurement": "half-life", "setting": "[1]; [4]", "result": 56.1, "unit": "min"}]}
{"smiles": "N=C(N)NCCC[C@@H](N)C(=O)N1[C@H](C(=O)N2CCC[C@H]2C(=O)O)C[C@@H]2CCCC[C@@H]21", "note": "[rOicP] (HELM PEPTIDE1{[dR].[O=C([C@@H]1C[C@@H]2CCCC[C@@H]2N1[*:1])[*:2]].P}$$$$V2.0)", "values": [{"measurement": "Papp", "setting": "[2]; from portal vein plasma during perfusion, read-out: Permeability (mesenteric)", "result": 1.63, "unit": "×10⁻⁶ cm/s"}, {"measurement": "Papp", "setting": "[2]; rat jejunal in situ perfusion, read-out: Permeability (in situ)", "result": 7.6, "unit": "×10⁻⁶ cm/s"}, {"measurement": "t1/2 (min) Intestinal Perfusate", "setting": "[1]", "result": "stable"}, {"measurement": "half-life", "setting": "[3]; intestinal homogenate, 37° C., read-out: t1/2 (min) Intestinal Homogenate", "result": 935, "unit": "min"}, {"measurement": "stability in intestinal homogenate (FIG. 12)", "setting": "[3]", "result": "most stable"}]}
